Test results published in US7851510B2, “Gossypol derivatives, production method thereof and uses of same” (Centre National de la Recherche Scientifique (C.N.R.S.), priority 2004, dated 2010).
Where two headings read alike, the source gives them in different places.

Experiments:
Experiment in all cases: Protein kinase activity in the presence of compound
Assay type in all cases: biochemical
NEK6 = NEK6 (Homo sapiens, UniProt Q9HC98); conditions: read-out: Residual activity NEK6
Experimental: (§1) The action of the compound of formula (14) was tested on a selection of 29 different protein kinases. The activity of these enzymes was measured in the presence of 10 μM of compound, according to the general methodology described by Bain et al. (2003) Biochem. J. 371:199-204 and Davies et al. (2000) Biochem. J. 351:95-105.
(§2) Residual enzyme activity of protein kinases in the presence of inhibitor compounds at the concentration given (expressed as a percentage of the activity measured in the absence of inhibitors). The results obtained for gossypol and gossypolone are given by way of comparison.

SAPK3/p38g = molecular target: T1, SAPK3/p38g (Homo sapiens, UniProt P53778); conditions: read-out: Residual activity SAPK3/p38g
T1 sequence (P53778 1-367): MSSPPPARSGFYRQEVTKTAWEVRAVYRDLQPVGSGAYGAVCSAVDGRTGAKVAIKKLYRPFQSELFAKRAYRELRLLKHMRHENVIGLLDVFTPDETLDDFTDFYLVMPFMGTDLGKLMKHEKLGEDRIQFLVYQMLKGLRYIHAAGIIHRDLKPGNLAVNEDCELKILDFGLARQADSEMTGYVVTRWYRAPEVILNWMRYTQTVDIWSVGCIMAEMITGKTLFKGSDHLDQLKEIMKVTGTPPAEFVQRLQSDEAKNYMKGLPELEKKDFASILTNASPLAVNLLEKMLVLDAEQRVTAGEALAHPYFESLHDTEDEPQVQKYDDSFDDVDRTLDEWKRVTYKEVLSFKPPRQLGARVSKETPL
Experimental: as §1, §2

DYRK1a = DYRK1a (Homo sapiens, UniProt Q13627); conditions: read-out: Residual activity DYRK1a
Experimental: as §1, §2

Lck = Lck (Homo sapiens, UniProt P06239); conditions: read-out: Residual activity Lck
Experimental: as §1, §2

MAPKAP-K2 = MAPKAP-K2 (Homo sapiens, UniProt P49137); conditions: read-out: Residual activity MAPKAP-K2
Experimental: as §1, §2

PKA = PKA (Homo sapiens, UniProt P17612); conditions: read-out: Residual activity PKA
Experimental: as §1, §2

CHK1 = molecular target: T2, CHK1 (Homo sapiens, UniProt O14757); conditions: read-out: Residual activity CHK1
T2 sequence (O14757 1-476): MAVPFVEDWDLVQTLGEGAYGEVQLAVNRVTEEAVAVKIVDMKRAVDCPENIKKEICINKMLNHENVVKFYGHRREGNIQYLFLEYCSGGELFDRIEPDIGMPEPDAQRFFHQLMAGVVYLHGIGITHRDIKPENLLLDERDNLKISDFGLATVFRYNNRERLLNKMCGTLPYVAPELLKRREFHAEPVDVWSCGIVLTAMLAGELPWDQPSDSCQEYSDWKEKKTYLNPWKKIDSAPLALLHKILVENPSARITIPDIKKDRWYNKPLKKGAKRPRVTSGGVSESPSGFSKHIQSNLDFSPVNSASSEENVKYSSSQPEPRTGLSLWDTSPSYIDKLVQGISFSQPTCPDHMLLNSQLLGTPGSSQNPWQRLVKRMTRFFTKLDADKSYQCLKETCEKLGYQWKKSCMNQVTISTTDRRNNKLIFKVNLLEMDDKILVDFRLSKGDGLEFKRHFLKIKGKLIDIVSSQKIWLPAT
Experimental: as §1, §2

SGK = molecular target: T3, SGK (Homo sapiens, UniProt O00141); conditions: for remaining activity at 10 µM: read-out: Residual activity SGK
T3 sequence (O00141 1-431): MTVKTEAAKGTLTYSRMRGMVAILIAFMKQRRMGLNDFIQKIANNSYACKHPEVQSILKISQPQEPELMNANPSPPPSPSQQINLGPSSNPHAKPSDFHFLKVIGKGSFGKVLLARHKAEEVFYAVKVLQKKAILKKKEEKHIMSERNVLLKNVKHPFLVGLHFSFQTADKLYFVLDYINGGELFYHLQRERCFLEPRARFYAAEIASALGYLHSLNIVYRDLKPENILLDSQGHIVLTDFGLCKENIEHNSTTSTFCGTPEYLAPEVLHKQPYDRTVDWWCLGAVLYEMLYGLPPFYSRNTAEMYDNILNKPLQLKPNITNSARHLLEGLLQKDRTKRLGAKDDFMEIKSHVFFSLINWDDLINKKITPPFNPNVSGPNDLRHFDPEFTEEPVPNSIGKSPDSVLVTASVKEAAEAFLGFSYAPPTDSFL
Experimental: as §1, §2

GSK3b = GSK3b (Homo sapiens, UniProt P49841); conditions: read-out: Residual activity GSK3b
Experimental: as §1, §2

PKB?ph = conditions: 10 μM compound; percentage of the activity measured in the absence of inhibitors
Experimental: as §1, §2

SAPK2a/p38 = SAPK2a/p38 (Homo sapiens, UniProt Q16539); conditions: read-out: Residual activity SAPK2a/p38
Experimental: as §1, §2

PKCa = PKCa (Homo sapiens, UniProt P17252); conditions: read-out: Residual activity PKCa
Experimental: as §1, §2

SAPK4/p38d = molecular target: T4, SAPK4/p38d (Homo sapiens, UniProt O15264); conditions: read-out: Residual activity SAPK4/p38d
T4 sequence (O15264 1-365): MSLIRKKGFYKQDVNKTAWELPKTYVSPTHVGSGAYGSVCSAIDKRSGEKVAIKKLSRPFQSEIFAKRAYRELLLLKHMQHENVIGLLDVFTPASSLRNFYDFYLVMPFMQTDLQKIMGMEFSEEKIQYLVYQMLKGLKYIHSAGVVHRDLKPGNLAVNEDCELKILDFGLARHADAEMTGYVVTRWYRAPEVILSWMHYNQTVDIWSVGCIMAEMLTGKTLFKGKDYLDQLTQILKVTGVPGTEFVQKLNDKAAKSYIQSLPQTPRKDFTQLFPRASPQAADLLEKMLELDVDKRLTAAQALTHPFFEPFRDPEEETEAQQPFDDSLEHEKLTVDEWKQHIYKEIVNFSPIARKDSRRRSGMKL
Experimental: as §1, §2

CSK = CSK (Homo sapiens, UniProt P41240); conditions: read-out: Residual activity CSK
Experimental: as §1, §2

AMPK = conditions: 10 μM compound; percentage of the activity measured in the absence of inhibitors
Experimental: as §1, §2

MKK1 = MKK1 (Homo sapiens, UniProt Q02750); conditions: read-out: Residual activity MKK1
Experimental: as §1, §2

[1] = 10 μM compound, percentage of the activity measured in the absence of inhibitors

Sequence of MKK1 (Q02750 whole entry, species assumed): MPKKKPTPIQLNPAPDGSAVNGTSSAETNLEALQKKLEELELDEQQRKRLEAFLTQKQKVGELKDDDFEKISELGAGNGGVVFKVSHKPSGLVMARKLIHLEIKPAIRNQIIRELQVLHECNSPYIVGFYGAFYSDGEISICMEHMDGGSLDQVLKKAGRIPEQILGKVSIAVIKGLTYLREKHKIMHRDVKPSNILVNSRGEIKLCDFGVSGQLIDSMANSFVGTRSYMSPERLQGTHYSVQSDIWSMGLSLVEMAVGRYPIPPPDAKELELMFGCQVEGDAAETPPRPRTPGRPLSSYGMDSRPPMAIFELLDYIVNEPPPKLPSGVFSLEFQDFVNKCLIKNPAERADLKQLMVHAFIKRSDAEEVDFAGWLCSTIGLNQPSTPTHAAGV
Sequence of Lck (P06239 whole entry, species assumed): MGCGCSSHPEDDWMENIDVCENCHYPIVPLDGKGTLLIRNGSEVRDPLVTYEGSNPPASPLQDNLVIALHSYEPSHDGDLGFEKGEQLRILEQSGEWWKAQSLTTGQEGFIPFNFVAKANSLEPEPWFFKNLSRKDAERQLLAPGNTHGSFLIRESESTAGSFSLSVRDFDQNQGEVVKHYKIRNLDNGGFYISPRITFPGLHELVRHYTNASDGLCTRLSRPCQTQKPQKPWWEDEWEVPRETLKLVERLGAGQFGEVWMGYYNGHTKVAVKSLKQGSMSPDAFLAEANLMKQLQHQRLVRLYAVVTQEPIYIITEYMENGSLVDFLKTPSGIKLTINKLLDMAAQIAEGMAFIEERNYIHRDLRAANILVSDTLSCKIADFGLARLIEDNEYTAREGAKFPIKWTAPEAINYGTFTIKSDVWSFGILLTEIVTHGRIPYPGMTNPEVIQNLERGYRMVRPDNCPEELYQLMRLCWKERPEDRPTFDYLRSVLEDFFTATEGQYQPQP
Sequence of NEK6 (Q9HC98 whole entry, species assumed): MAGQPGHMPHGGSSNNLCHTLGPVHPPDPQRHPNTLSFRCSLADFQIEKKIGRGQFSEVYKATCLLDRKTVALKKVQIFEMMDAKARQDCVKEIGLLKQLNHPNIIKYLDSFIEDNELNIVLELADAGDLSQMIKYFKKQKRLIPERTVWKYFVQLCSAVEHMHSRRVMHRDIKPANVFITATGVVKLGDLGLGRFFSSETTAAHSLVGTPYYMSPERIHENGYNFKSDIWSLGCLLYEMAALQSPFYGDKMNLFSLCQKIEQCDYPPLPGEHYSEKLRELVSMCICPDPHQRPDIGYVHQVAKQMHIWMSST
Sequence of SAPK2a/p38 (Q16539 whole entry): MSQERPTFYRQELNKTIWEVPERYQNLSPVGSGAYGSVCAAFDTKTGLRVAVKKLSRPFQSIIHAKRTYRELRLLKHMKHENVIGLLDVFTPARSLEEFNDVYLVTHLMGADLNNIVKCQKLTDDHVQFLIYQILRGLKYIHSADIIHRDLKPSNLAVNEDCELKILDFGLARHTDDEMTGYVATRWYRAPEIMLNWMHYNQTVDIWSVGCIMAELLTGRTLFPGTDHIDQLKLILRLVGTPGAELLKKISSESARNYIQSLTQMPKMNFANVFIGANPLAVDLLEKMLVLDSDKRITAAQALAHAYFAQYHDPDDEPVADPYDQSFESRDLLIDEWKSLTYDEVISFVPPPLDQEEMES
Sequence of GSK3b (P49841 whole entry, species assumed): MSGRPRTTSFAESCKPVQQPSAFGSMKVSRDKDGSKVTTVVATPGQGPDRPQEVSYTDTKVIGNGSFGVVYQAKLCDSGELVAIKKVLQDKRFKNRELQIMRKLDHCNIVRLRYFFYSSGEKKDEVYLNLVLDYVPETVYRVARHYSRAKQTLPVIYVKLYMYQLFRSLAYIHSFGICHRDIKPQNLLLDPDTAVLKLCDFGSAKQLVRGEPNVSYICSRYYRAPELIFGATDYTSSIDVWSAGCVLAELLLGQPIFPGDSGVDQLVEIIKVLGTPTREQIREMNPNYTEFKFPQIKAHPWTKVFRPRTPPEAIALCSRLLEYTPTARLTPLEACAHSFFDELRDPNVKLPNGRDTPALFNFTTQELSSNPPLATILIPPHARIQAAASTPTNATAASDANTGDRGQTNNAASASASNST
Sequence of CSK (P41240 whole entry, species assumed): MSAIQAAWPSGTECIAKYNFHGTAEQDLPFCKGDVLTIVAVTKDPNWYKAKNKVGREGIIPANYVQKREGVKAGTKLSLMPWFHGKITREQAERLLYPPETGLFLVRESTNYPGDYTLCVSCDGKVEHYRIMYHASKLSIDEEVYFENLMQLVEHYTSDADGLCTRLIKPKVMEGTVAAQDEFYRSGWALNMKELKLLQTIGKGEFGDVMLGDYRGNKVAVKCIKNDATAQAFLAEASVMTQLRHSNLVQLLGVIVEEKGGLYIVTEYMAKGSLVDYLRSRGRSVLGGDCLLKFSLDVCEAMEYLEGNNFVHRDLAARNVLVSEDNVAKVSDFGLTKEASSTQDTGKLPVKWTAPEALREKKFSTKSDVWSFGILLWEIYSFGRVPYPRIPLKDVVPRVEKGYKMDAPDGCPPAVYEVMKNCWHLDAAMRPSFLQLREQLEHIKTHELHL
Sequence of MAPKAP-K2 (P49137 whole entry, species assumed): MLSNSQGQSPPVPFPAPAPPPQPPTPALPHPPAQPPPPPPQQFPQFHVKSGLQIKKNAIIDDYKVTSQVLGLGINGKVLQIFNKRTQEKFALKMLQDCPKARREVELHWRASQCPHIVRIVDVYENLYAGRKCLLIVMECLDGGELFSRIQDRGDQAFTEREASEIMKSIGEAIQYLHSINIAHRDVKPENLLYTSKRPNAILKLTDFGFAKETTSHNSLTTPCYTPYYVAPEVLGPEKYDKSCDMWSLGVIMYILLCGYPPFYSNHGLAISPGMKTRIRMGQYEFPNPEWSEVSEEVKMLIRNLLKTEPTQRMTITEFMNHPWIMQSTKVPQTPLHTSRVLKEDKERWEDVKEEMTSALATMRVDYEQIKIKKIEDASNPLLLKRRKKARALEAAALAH

| SMILES | remaining activity at 10 µM (NEK6) [%] | remaining activity at 10 µM (SAPK3/p38g) [%] | remaining activity at 10 µM (DYRK1a) [%] | remaining activity at 10 µM (Lck) [%] | remaining activity at 10 µM (MAPKAP-K2) [%] | remaining activity at 10 µM (PKA) [%] | remaining activity at 10 µM (CHK1) [%] | Reduction of the activity of SGK (SGK; 10 μM compound) [%] | remaining activity at 10 µM (SGK) [%] | remaining activity at 10 µM (GSK3b) [%] | Residual activity PKB?ph (PKB?ph) [%] | remaining activity at 10 µM (SAPK2a/p38) [%] | remaining activity at 10 µM (PKCa) [%] | remaining activity at 10 µM (SAPK4/p38d) [%] | remaining activity at 10 µM (CSK) [%] | Residual activity AMPK (AMPK) [%] | remaining activity at 10 µM (MKK1) [%] | other results |
| --- | --- | --- | --- | --- | --- | --- | --- | --- | --- | --- | --- | --- | --- | --- | --- | --- | --- | --- |
| CC1=C(C2=C(C)C(=O)c3c(c(O)c(O)c(O)c3C(C)C)C2=O)C(=O)c2c(O)c(O)c(O)c(C(C)C)c2C1=O [Compound (4), 6,7,8,6′,7′,8′-hexahydroxy-5,5′-diisopropyl-3,3′-dimethyl-[2.2′]binaphthalenyl-1,4,1′,4′-tetraone] | 86 | 89 | 25 | 71 | 28 | 69 | 127 | 96 | 4 | 63 | 39 | 105 | 85 | 88 | 93 | 61 | 59 |  |
| CC1=C(C2=C(C)C(=O)c3c(c(CSCCO)c(O)c(O)c3C(C)C)C2=O)C(=O)c2c(CSCCO)c(O)c(O)c(C(C)C)c2C1=O [Compound (14), 6,7,6′,7′-tetrahydroxy-8,8′-bis-(2-hydroxy-ethylsulphanylmethyl)-5,5′-diisopropyl-3,3′-dimethyl-[2,2′]binaphthalenyl-1,4,1′,4′-tetraone] |  |  |  |  |  |  |  | 93 |  |  | 76 |  |  |  |  | 70 |  | remaining activity at 10 µM (NEK6; [1]): 81%; remaining activity at 10 µM (SAPK3/p38g; [1]): 76%; remaining activity at 10 µM (DYRK1a; [1]): 16%; remaining activity at 10 µM (Lck; [1]): 54%; remaining activity at 10 µM (MAPKAP-K2; [1]): 36%; remaining activity at 10 µM (PKA; [1]): 59%; remaining activity at 10 µM (CHK1; [1]): 47%; remaining activity at 10 µM (SGK; [1]): 7%; remaining activity at 10 µM (GSK3b; [1]): 85%; remaining activity at 10 µM (SAPK2a/p38; [1]): 102%; remaining activity at 10 µM (PKCa; [1]): 86%; remaining activity at 10 µM (SAPK4/p38d; [1]): 85%; remaining activity at 10 µM (CSK; [1]): 60%; remaining activity at 10 µM (MKK1; [1]): 90% |
| Cc1cc2c(C(C)C)c(O)c(O)c(C=O)c2c(O)c1-c1c(C)cc2c(C(C)C)c(O)c(O)c(C=O)c2c1O [Gossypol, gossypol] | 92 | 108 | 21 | 76 | 56 | 47 | 9 |  | 14 | 47 | 94 | 99 | 96 | 66 | 103 | 72 | 86 |  |
| CC1=C(C2=C(C)C(=O)c3c(c(C=O)c(O)c(O)c3C(C)C)C2=O)C(=O)c2c(C=O)c(O)c(O)c(C(C)C)c2C1=O [Gossypolone, gossypolone, reference compound] | 89 | 83 | 27 | 60 | 28 | 69 | 24 |  | 3 | 43 | 53 | 108 | 78 | 75 | 64 | 66 | 76 |  |
